Test results published in patent publication US20260174734A1, “PHARMACEUTICAL COMPOSITION” (MEXICHEM FLUOR S.A. DE C.V., priority 2016, published 2026).

How the values were obtained:
[1] = In vitro aerosolization performance from MDI (Next Generation Impactor); format: physicochemical
Procedure: The drugs were weighed directly into standard uncoated 14 ml aluminium canisters (C128, Presspart, Blackburn, UK). The canisters were then crimped with a 50 μL valve (Bespak, Kings Lynn, UK) following which the propellant was filled into the canisters through the valve using a manual Pamasol crimper/filler (Pamasol, Switzerland).
Finally, the canisters were sonicated for 20 minutes to aid dispersion of the drug in the suspension.
The in vitro aerosolization performance of the formulations was tested immediately after preparation (time t=zero) with a Next Generation Impactor using the method described below. The formulations were then stored under stress storage conditions (valve down) at 40° C. and 75% relative humidity for 1 month. After storing for 1 month under the stress storage conditions, the in vitro aerosolization performance of the pharmaceutical formulations was tested again as before with a Next Generation Impactor using the method described below.
The Next Generation Impactor (NGI, Copley Scientific, Nottingham UK) was connected to a vacuum pump (GE Motors, NJ, USA). Prior to testing, the cups of the NGI system were coated with 1% v/v silicone oil in hexane to eliminate particle bounce. For each experiment, three actuations of the valve were discharged into the NGI at 30 L.min-1 as per pharmacopeia guidelines. Following aerosolization, the NGI apparatus was dismantled and the actuator and each part of the NGI was washed down into known volumes of the HPLC mobile phase. The mass of drug deposited on each part of the NGI was determined by HPLC. This protocol was repeated three times for each canister, following which, the fine particle dose (FPD) and fine particle fraction of the emitted dose (FPFED) were determined.
High performance liquid chromatography (HPLC) was used to determine drug content following aerosolization studies (see below).
(§1) The columns were coupled to a UV detector operating at a wavelength of either 220 nm or 235 nm depending on which drug was being analysed. The autosampler was operated at ambient temperature and 100 μl samples were injected into the column for the analyses.

[2] = Chemical stability in propellant in uncoated aluminium cans (HPLC assay and total impurities); details: for % Assay (LC) / % total impurities: uncoated aluminium cans
Procedure: as §1

[3] = HFA-134a propellant, T = 0, combination formulation, MDI
[4] = HFA-134a propellant, T = 1 month @ 40° C./75% RH, valve down
[5] = HFA-152a propellant, T = 0, combination formulation, MDI
[6] = HFA-152a propellant, T = 1 month @ 40° C./75% RH, valve down
[7] = HFA-134a, T = 1M @ 25° C./60% RH
[8] = HFA-134a, T = 1M @ 40° C./75% RH
[9] = HFA-134a, T = 3M @ 25° C./60% RH
[10] = HFA-134a, T = 3M @ 40° C./75% RH
[11] = HFA-152a, T = 1M @ 25° C./60% RH
[12] = HFA-152a, T = 1M @ 40° C./75% RH
[13] = HFA-152a, T = 3M @ 25° C./60% RH
[14] = HFA-152a, T = 3M @ 40° C./75% RH

| Structure (SMILES) | Emitted Dose (μg ± S.D.) [1, 3] | Fine Particle Dose (μg ± S.D.) [1, 3] | MMAD ± GSD (μm) [1, 3] | Emitted Dose (μg ± S.D.) [1, 4] | Fine Particle Dose (μg ± S.D.) [1, 4] | MMAD ± GSD (μm) [1, 4] | Emitted Dose (μg ± S.D.) [1, 5] | Fine Particle Dose (μg ± S.D.) [1, 5] | MMAD ± GSD (μm) [1, 5] | Emitted Dose (μg ± S.D.) [1, 6] | Fine Particle Dose (μg ± S.D.) [1, 6] | MMAD ± GSD (μm) [1, 6] | % Assay (LC) ([2]; HFA-134a, Initial time T = 0) | % total impurities ([2]; HFA-134a, Initial time T = 0) | % Assay (LC) [2, 7] | % total impurities [2, 7] | % Assay (LC) [2, 8] | % total impurities [2, 8] | % Assay (LC) [2, 9] | % total impurities [2, 9] | other results |
| --- | --- | --- | --- | --- | --- | --- | --- | --- | --- | --- | --- | --- | --- | --- | --- | --- | --- | --- | --- | --- | --- |
| CCC(=O)O[C@]1(C(=O)SCF)[C@H](C)C[C@H]2[C@@H]3C[C@H](F)C4=CC(=O)C=C[C@]4(C)[C@@]3(F)[C@@H](O)C[C@@]21C [Fluticasone Propionate, fluticasone propionate] | 119.0 ± 2.0 µg | 38.8 ± 1.7 µg | 3.0 ± 1.8 μm | 112.8 ± 2.3 µg | 32.8 ± 1.9 µg | 3.1 ± 1.9 μm | 111.8 ± 0.7 µg | 51.5 ± 1.9 µg | 3.0 ± 1.9 μm | 105.6 ± 0.8 µg | 48.5 ± 1.5 µg | 2.9 ± 1.9 μm | 98.5% | <LoQ | 98.2% | 0.19% | 97.8% | 0.38% | 94.8% | 0.58% | FPFED (%) fine particle fraction of the emitted dose [1, 3]: 32.6 ± 0.9%; FPFED (%) fine particle fraction of the emitted dose [1, 4]: 29.0 ± 1.9%; FPFED (%) fine particle fraction of the emitted dose [1, 5]: 46.1 ± 1.5%; FPFED (%) fine particle fraction of the emitted dose [1, 6]: 45.2 ± 1.2%; % Assay (LC) [2, 10]: 93.8%; % total impurities [2, 10]: 0.69%; % Assay (LC) ([2]; HFA-152a, Initial time T = 0): 98.5%; % total impurities ([2]; HFA-152a, Initial time T = 0): <LoQ; % Assay (LC) [2, 11]: 98.6%; % total impurities [2, 11]: <LoQ; % Assay (LC) [2, 12]: 98.4%; % total impurities [2, 12]: 0.18%; % Assay (LC) [2, 13]: 97.6%; % total impurities [2, 13]: <LoQ; % Assay (LC) [2, 14]: 97.2%; % total impurities [2, 14]: 0.58% |
| C[N+]1(C)CCC(OC(=O)C(O)(c2ccccc2)C2CCCC2)C1 (stereo not shown) [Glycopyrronium Bromide, glycopyrronium bromide] | 43.7 ± 0.2 µg | 12.6 ± 0.1 µg | 2.6 ± 2.4 μm | 38.7 ± 0.6 µg | 11.4 ± 0.4 µg | 2.8 ± 2.3 μm | 45.2 ± 0.7 µg | 21.0 ± 1.0 µg | 3.1 ± 2.2 μm | 44.2 ± 0.6 µg | 20.7 ± 0.8 µg | 3.0 ± 2.2 μm | 98.5% | 0.19% | 98.2% | 0.28% | 97.8% | 0.39% | 94.8% | 1.15% | MMAD ([1]; HFA-134a based formulations): around 2.6 μm; % Assay (LC) [2, 10]: 93.8%; % total impurities [2, 10]: 1.38%; % Assay (LC) ([2]; HFA-152a, Initial time T = 0): 98.5%; % total impurities ([2]; HFA-152a, Initial time T = 0): 0.19%; % Assay (LC) [2, 11]: 98.6%; % total impurities [2, 11]: 0.25%; % Assay (LC) [2, 12]: 98.4%; % total impurities [2, 12]: 0.35%; % Assay (LC) [2, 13]: 97.6%; % total impurities [2, 13]: 0.55%; % Assay (LC) [2, 14]: 97.2%; % total impurities [2, 14]: 0.82% |
| CCc1cc2c(cc1CC)CC(NC[C@H](O)c1ccc(O)c3[nH]c(=O)ccc13)C2 [Indacaterol, indacaterol] |  |  |  |  |  |  |  |  |  |  |  |  |  |  |  |  |  |  |  |  | chemical stability under accelerated test conditions, HFA-152a rather than HFA-134a ([2]; HFA-152a as aerosolization propellant versus HFA-134a): superior chemical stability |
